{
  "source": "ChEMBL document CHEMBL6071165",
  "about": "“Design, synthesis and biological evaluation of plant-derived miliusol derivatives achieve TNBC profound regression in vivo” (Eur J Med Chem, 2024)",
  "key": {"MDA-MB-231 [1]": {"test_system": "MDA-MB-231", "test": "Antiproliferative activity against human MDA-MB-231 cells xenografted in female BALB/c mouse model assessed as fold change in inhibition of PKM2 expression at 20 mg/kg administered subcutaneously incubated for 24 hrs by Western blot analysis (reference value: 1.00%)", "type": "functional", "conditions": "route sc"}, "Mitochondrial membrane": {"test_system": "Mitochondrial membrane", "test": "Disruption of mitochondrial potential loss in human BT-549 cells assessed as increase in JC-1 monomers at 1 uM incubated for 24 hrs by JC-1 staining based flow cytometric analysis (Rvb =1.07%)", "type": "cell membranes"}, "[2]": {"test": "Selectivity ratio of IC50 for antiproliferative activity against human MCF-10A cells assessed as inhibition of cell proliferation incubated for 48 hrs by MTT assay to IC50 for antiproliferative activity against human MDA-MB-231 cells assessed as inhibition of cell proliferation incubated for 48 hrs by MTT assay", "type": "cell-based", "conditions": "MCF-10A cells versus MDA-MB-231 cells, read-out: Ratio IC50"}, "BT-549 [3]": {"test_system": "BT-549", "test": "Induction of apoptosis in human BT-549 cells assessed as late apoptotic cells at 1 uM incubated for 24 hrs by Annexin V-PI staining based flow cytometric analysis (reference value: 2.95%)", "type": "functional"}, "MDA-MB-231 [4]": {"test_system": "MDA-MB-231", "test": "Inhibition of glycolysis in human MDA-MB-231 cells assessed as decrease in GLUT4 protein level at 0.5 to 2 uM incubated for 24 hrs by Western blot analysis", "type": "functional, cell-based", "conditions": "dose 0.5-2 µM"}, "BT-549 [5]": {"test_system": "BT-549", "test": "Antiproliferative activity against human BT-549 cells xenografted in female BALB/c mouse model assessed as fold change in downregulation of MMP-2 protein level at 5 mg/kg administered subcutaneously incubated for 24 hrs by Western blot analysis (reference value: 1.00%)", "type": "functional", "conditions": "route sc"}, "MDA-MB-231 [6]": {"test_system": "MDA-MB-231", "test": "Antiproliferative activity against human MDA-MB-231 cells xenografted in female BALB/c mouse model assessed as fold change in upregulation of BIP protein level at 10 mg/kg administered subcutaneously incubated for 24 hrs by Western blot analysis (reference value: 1.00%)", "type": "functional", "conditions": "route sc"}, "MDA-MB-231 [7]": {"test_system": "MDA-MB-231", "test": "Antiproliferative activity against human MDA-MB-231 cells xenografted in female BALB/c mouse model assessed as fold change in upregulation of BIP protein level at 5 mg/kg administered subcutaneously incubated for 24 hrs by Western blot analysis (reference value: 1.00%)", "type": "functional", "conditions": "route sc"}, "MDA-MB-231 [8]": {"test_system": "MDA-MB-231", "test": "Downregulation of c-Jun level in human MDA-MB-231 cells incubated for 24 hrs by Western blot analysis", "type": "functional, cell-based", "conditions": "dose 0.5-2 µM"}, "BT-549 [9]": {"test_system": "BT-549", "test": "Antiproliferative activity against human BT-549 cells xenografted in female BALB/c mouse model assessed as fold change in inhibition of PKM2 expression at 10 mg/kg administered subcutaneously incubated for 24 hrs by Western blot analysis (reference value: 1.05%)", "type": "functional", "conditions": "route sc"}, "BT-549 [10]": {"test_system": "BT-549", "test": "Induction of apoptosis in human BT-549 cells assessed as necrotic cells at 0.5 uM incubated for 24 hrs by Annexin V-PI staining based flow cytometric analysis (reference value: 3.32%)", "type": "functional"}, "MDA-MB-231 [11]": {"test_system": "MDA-MB-231", "test": "Antiproliferative activity against human MDA-MB-231 cells xenografted in female BALB/c mouse model assessed as fold change in upregulation of BIP protein level at 20 mg/kg administered subcutaneously incubated for 24 hrs by Western blot analysis (reference value: 1.00%)", "type": "functional", "conditions": "route sc"}, "MDA-MB-231 [12]": {"test_system": "MDA-MB-231", "test": "Antiproliferative activity against human MDA-MB-231 cells xenografted in female BALB/c mouse model assessed as fold change in downregulation of MMP-2 protein level at 20 mg/kg administered subcutaneously incubated for 24 hrs by Western blot analysis (reference value: 1.00%)", "type": "functional", "conditions": "route sc"}, "MDA-MB-231 [13]": {"test_system": "MDA-MB-231", "test": "Antiproliferative activity against human MDA-MB-231 cells xenografted in female BALB/c mouse model assessed as fold change in upregulation of BAX protein level at 10 mg/kg administered subcutaneously incubated for 24 hrs by Western blot analysis (reference value: 1.00%)", "type": "functional", "conditions": "route sc"}, "MDA-MB-231 [14]": {"test_system": "MDA-MB-231", "test": "Antiproliferative activity against human MDA-MB-231 cells xenografted in female BALB/c mouse model assessed as fold change in downregulation of MMP-2 protein level at 10 mg/kg administered subcutaneously incubated for 24 hrs by Western blot analysis (reference value: 1.00%)", "type": "functional", "conditions": "route sc"}, "BT-549 [15]": {"test_system": "BT-549", "test": "Antitumor activity against human BT-549 cells xenografted in female BALB/c mouse model assessed as reduction in tumor weight administered subcutaneously and measured every day", "type": "functional, cell-based", "conditions": "dose 5-20 mg/kg, route sc"}, "BT-549 [16]": {"test_system": "BT-549", "test": "Induction of apoptosis in human BT-549 cells assessed as upregulation of Bax expression at 0.5 to 2 uM incubated for 24 hrs by Western blot analysis", "type": "functional, cell-based", "conditions": "dose 0.5-2 µM"}, "[17]": {"test": "Antiproliferative activity against human MCF-10A cells assessed as inhibition of cell proliferation incubated for 48 hrs by MTT assay", "type": "toxicity, cell-based"}, "[18]": {"test": "Toxicity in female BALB/c mouse assessed as change in heart administered subcutaneously measured upto 16 days", "type": "tissue-based", "conditions": "in vivo, sc, 384 h, time < 16 day"}, "BT-549 [19]": {"test_system": "BT-549", "test": "Antiproliferative activity against human BT-549 cells xenografted in female BALB/c mouse model assessed as fold change in upregulation of BIP protein level at 5 mg/kg administered subcutaneously incubated for 24 hrs by Western blot analysis (reference value: 1.00%)", "type": "functional", "conditions": "route sc"}, "BT-549 [20]": {"test_system": "BT-549", "test": "Induction of apoptosis in human BT-549 cells assessed as early apoptotic cells at 1 uM incubated for 24 hrs by Annexin V-PI staining based flow cytometric analysis (reference value: 0.78%)", "type": "functional"}, "[21]": {"test": "Toxicity in female BALB/c mouse assessed as change in kidney administered subcutaneously measured upto 16 days", "type": "tissue-based", "conditions": "in vivo, sc, 384 h, time < 16 day"}, "BT-549 [22]": {"test_system": "BT-549", "test": "Induction of ER stress in human BT-549 cells assessed as activation of BIP protein level incubated for 24 hrs by Western blot analysis", "type": "functional, cell-based", "conditions": "dose 0.5-2 µM"}, "[23]": {"test": "Toxicity in female BALB/c mouse xenografted with human BT-549 cells assessed as effect on pathological changes in heart at 5 to 20 mg/kg, sc by H and E staining based analysis", "type": "organism-based", "conditions": "in vivo, dose 5-20 mg/kg"}, "MDA-MB-231 [24]": {"test_system": "MDA-MB-231", "test": "Antiproliferative activity against human MDA-MB-231 cells xenografted in female BALB/c mouse model assessed as fold change in cleavage of caspase-3 level at 5 mg/kg administered subcutaneously incubated for 24 hrs by Western blot analysis (reference value: 1.00%)", "type": "functional", "conditions": "route sc"}, "BT-549 [25]": {"test_system": "BT-549", "test": "Antiproliferative activity against human BT-549 cells xenografted in female BALB/c mouse model assessed as fold change in cleavage of caspase-3 level at 5 mg/kg administered subcutaneously incubated for 24 hrs by Western blot analysis (reference value: 1.00%)", "type": "functional", "conditions": "route sc"}, "[26]": {"test": "Toxicity in female BALB/c mouse xenografted with human BT-549 cells assessed as effect on pathological changes in lung at 5 to 20 mg/kg, sc by H and E staining based analysis", "type": "organism-based", "conditions": "in vivo, dose 5-20 mg/kg"}, "BT-549 [27]": {"test_system": "BT-549", "test": "Antiproliferative activity against human BT-549 cells xenografted in female BALB/c mouse model assessed as fold change in upregulation of BAX protein level at 5 mg/kg administered subcutaneously incubated for 24 hrs by Western blot analysis (reference value: 1.00%)", "type": "functional", "conditions": "route sc"}, "MDA-MB-231 [28]": {"test_system": "MDA-MB-231", "test": "Antiproliferative activity against human MDA-MB-231 cells xenografted in female BALB/c mouse model assessed as fold change in downregulation of MMP-2 protein level at 5 mg/kg administered subcutaneously incubated for 24 hrs by Western blot analysis (reference value: 1.00%)", "type": "functional", "conditions": "route sc"}, "MDA-MB-231 [29]": {"test_system": "MDA-MB-231", "test": "Induction of apoptosis in human MDA-MB-231 cells assessed as necrotic cells at 0.5 uM incubated for 24 hrs by Annexin V-PI staining based flow cytometric analysis (reference value: 1.29%)", "type": "functional"}},
  "note": "The source made the active and inactive calls. No cut-off for these calls is given here.",
  "data": [
    {"compound": "CC(C)=CCC/C(C)=C/[C@H]1OC(=O)CC12C[C@H](OC(=O)Cc1ccc(NC(=O)/C=C/c3ccccc3)cc1)C=CC2=O", "note": "(stereo not given in full)", "values": [
      {"measurement": "fold change (FC)", "setting": "MDA-MB-231 [1]", "result": 0.31},
      {"measurement": "Activity", "setting": "Mitochondrial membrane", "result": 56.3, "unit": "%"},
      {"measurement": "selectivity ratio at 48 h", "setting": "[2]", "result": 36.4},
      {"measurement": "Activity", "setting": "BT-549 [3]", "result": 24.9, "unit": "%"},
      {"measurement": "inhibition", "setting": "MDA-MB-231 [4]", "result": "Active"},
      {"measurement": "fold change (FC)", "setting": "BT-549 [5]", "result": 0.99},
      {"measurement": "fold change (FC)", "setting": "MDA-MB-231 [6]", "result": 2.1},
      {"measurement": "fold change (FC)", "setting": "MDA-MB-231 [7]", "result": 2.18},
      {"measurement": "Activity", "setting": "MDA-MB-231 [8]", "result": "Dose-Dependent Effect"},
      {"measurement": "fold change (FC)", "setting": "BT-549 [9]", "result": 0.76},
      {"measurement": "Activity", "setting": "BT-549 [10]", "result": 3.73, "unit": "%"},
      {"measurement": "fold change (FC)", "setting": "MDA-MB-231 [11]", "result": 2.42},
      {"measurement": "fold change (FC)", "setting": "MDA-MB-231 [12]", "result": 0.26},
      {"measurement": "fold change (FC)", "setting": "MDA-MB-231 [13]", "result": 1.13},
      {"measurement": "fold change (FC)", "setting": "MDA-MB-231 [14]", "result": 0.26},
      {"measurement": "Activity", "setting": "BT-549 [15]", "result": "Dose-Dependent Effect"},
      {"measurement": "Activity", "setting": "BT-549 [16]", "result": "Active"},
      {"measurement": "IC50 at 48 h", "setting": "[17]", "result": 16, "unit": "µM"},
      {"measurement": "Activity", "setting": "[18]", "result": "Non-Toxic"},
      {"measurement": "fold change (FC)", "setting": "BT-549 [19]", "result": 1.4},
      {"measurement": "Activity", "setting": "BT-549 [20]", "result": 3.62, "unit": "%"},
      {"measurement": "Activity", "setting": "[21]", "result": "Non-Toxic"},
      {"measurement": "Activity", "setting": "BT-549 [22]", "result": "Dose-Dependent Effect"},
      {"measurement": "Activity", "setting": "[23]", "result": "Non-Toxic"},
      {"measurement": "fold change (FC)", "setting": "MDA-MB-231 [24]", "result": 1.11},
      {"measurement": "fold change (FC)", "setting": "BT-549 [25]", "result": 1.64},
      {"measurement": "Activity", "setting": "[26]", "result": "Non-Toxic"},
      {"measurement": "fold change (FC)", "setting": "BT-549 [27]", "result": 1.4},
      {"measurement": "fold change (FC)", "setting": "MDA-MB-231 [28]", "result": 0.44},
      {"measurement": "Activity", "setting": "MDA-MB-231 [29]", "result": 12.7, "unit": "%"}
    ]}
  ]
}
